Source: patent US3949090A, “Methods and compositions for improving feed efficiency in ruminants using dithiooxamide” (SmithKline Corporation, priority 1974, dated 1976)

Columns and labels:
[1] = tested on: volatile fatty acid production (strained rumen fluid); assay: In vitro volatile fatty acid production; format: cell-based; conditions: Table III, dithiooxamide 0 ppm; for Volatile Fatty Acids (molar distribution, %): Propionate: control 15; for Volatile Fatty Acids (molar distribution, %): Butyrate: control 21; for Volatile Fatty Acids (molar distribution, %): Acetate: control 64; for Volatile Fatty Acid Carbon: control 125
Experimental: (§1) The in vitro fermentation system contained 75 ml. strained rumen fluid, 200 mg, alfalfa hay, 800 mg. of a crude protein grain mixture, 0.8 to 1.6 mM of each of 10 essential amino acids (threonine, valine, methionine, isoleucine, leucine, phelylalanine, tryptophan, lysine and arginine), and 0 to 50 ppm dithiooxamide. Flasks were incubated for 4 hours with effects upon amino acid deamination assessed as described for the previous system. Using standard chromatographic techniques, effects upon methanogenesis and upon the pattern of volatile fatty acid production were determined.
(§2) ^1 In vitro fermentation system contained 75 ml. strained rumen fluid
(§3) 200 mg. alfalfa hay, 800 mg. grain mixture (16% crude protein) and 1.6 mM
(§4) of each of ten essential amino acids. Flasks were incubated for four
(§5) 200 mg. alfalfa hay, 800 mg. grain mixture (16% crude protein) and 0.8 mM

[2] = tested on: methanogenesis (strained rumen fluid); assay: In vitro effects upon methanogenesis; format: cell-based; conditions: Table III, dithiooxamide 0 ppm
Experimental: as §1, §2, §3, §4, §5

[3] = tested on: gas production (strained rumen fluid); assay: In vitro gas production; format: cell-based; conditions: Table III, dithiooxamide 0 ppm, control 65
Experimental: as §1, §2, §5, §4

[4] = tested on: Microbial Deaminase (strained rumen fluid); assay: In vitro microbial deaminase inhibition (rumen fluid, alfalfa hay, grain mixture; 4 hours); format: cell-based; conditions: Table III, dithiooxamide 0 ppm, 240 min
Experimental: as §1, §2, §3, §4, §5

sheep = conditions: amino acid supplement; cited from earlier work
protein deposition = conditions: compared with acetate; Potter et al., Eskeland et al.; cited from earlier work

## O=S(=O)([O-])[O-].[Co+2] [Cobalt Sulfate, reference compound]
[1]; cobalt sulfate .013 ppm
  Volatile Fatty Acids (molar distribution, %): Propionate: 15%
  Volatile Fatty Acids (molar distribution, %): Butyrate: 22%
  Volatile Fatty Acids (molar distribution, %): Acetate: 63%
  Volatile Fatty Acid Carbon: 120 μ moles/ml.
[1]; cobalt sulfate .067 ppm
  Volatile Fatty Acids (molar distribution, %): Propionate: 15%
  Volatile Fatty Acids (molar distribution, %): Butyrate: 22%
  Volatile Fatty Acids (molar distribution, %): Acetate: 63%
  Volatile Fatty Acid Carbon: 127 μ moles/ml.
[2]; cobalt sulfate .013 ppm
  Methane Inhibition (%): 1%
[2]; cobalt sulfate .067 ppm
  Methane Inhibition (%): -5%
[3]; cobalt sulfate .013 ppm
  Gas Production: 65 cc
[3]; cobalt sulfate .067 ppm
  Gas Production: 65 cc
[4]; cobalt sulfate .013 ppm
  MDI (%): 1%
[4]; cobalt sulfate .067 ppm
  MDI (%): 2%

## O=S(=O)([O-])[O-].[Cu+2] [Copper Sulfate, reference compound]
[1]; copper sulfate .067 ppm
  Volatile Fatty Acids (molar distribution, %): Propionate: 15%
  Volatile Fatty Acids (molar distribution, %): Butyrate: 21%
  Volatile Fatty Acids (molar distribution, %): Acetate: 64%
  Volatile Fatty Acid Carbon: 123 μ moles/ml.
[1]; copper sulfate .333 ppm
  Volatile Fatty Acids (molar distribution, %): Propionate: 15%
  Volatile Fatty Acids (molar distribution, %): Butyrate: 22%
  Volatile Fatty Acids (molar distribution, %): Acetate: 63%
  Volatile Fatty Acid Carbon: 121 μ moles/ml.
[2]; copper sulfate .067 ppm
  Methane Inhibition (%): -5%
[2]; copper sulfate .333 ppm
  Methane Inhibition (%): -11%
[3]; copper sulfate .067 ppm
  Gas Production: 65 cc
[3]; copper sulfate .333 ppm
  Gas Production: 64 cc
[4]; copper sulfate .067 ppm
  MDI (%): 3%
[4]; copper sulfate .333 ppm
  MDI (%): 6%

## CSCC[C@H](N)C(=O)O [Methionine]
sheep
  quality of wool in sheep (in words): particularly useful in increasing the quality of wool in sheep

## CCC(=O)O [propionate]
Protein deposition
  energy metabolites for protein deposition in sheep (in words): better energy metabolites than acetate for protein deposition in sheep
